Common to all, as to test: NCI anticancer screen, dose series, 48 h
Assay [1] has as its system A498 renal.
In assay [2] the test system is HCC-2998 colon.
Assay [3] concerns MCF7 breast.
In assay [4] the test system is NCI-H460 lung.
In assay [5] the test system is NCI-H522 lung.
In assay [6] the test system is RPMI-8226 leukemia.
The subject of assay [7] is SK-MEL-28 melanoma.
Assay [8] concerns SK-MEL-5 melanoma.
The test system of assay [9] is SNB-75 CNS.
For assay [10], the system named is SW-620 colon.

Molecules are shown by their SMILES.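 Test compounds were applied to cells in 96-well plates for 48 hours at 5 doses. The concentration for 50% growth inhibition is given as GI50. TGI marks complete inhibition of growth.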

Take `CC1(C)[C@@H](O[C@@H]2OC[C@@H](O[C@@H]3O[C@H](CO)[C@@H](O)[C@H](O)[C@H]3O[C@@H]3OC[C@@H](O)[C@H](O)[C@H]3O)[C@H](O)[C@H]2O[C@@H]2O[C@H](CO)[C@@H](O)[C@H](O)[C@H]2O)CC[C@]2(C)[C@H]3CC[C@]45OC[C@@]6(CC[C@](C)(C=O)C[C@H]64)[C@H](O)C[C@@]5(C)[C@]3(C)CC[C@@H]12`: the GI50 in [1] was 0.825 µM; in assay [2], 0.931 µM; in assay [3] it was 0.972 µM; in assay [4], 1.17 µM; in assay [5] it was 0.903 µM; in assay [6], 1.12 µM. For the same compound, the GI50 in [7] is 0.903 µM; in assay [8] it was 2.8 µM; in [9], 0.746 µM; in assay [10], 0.969 µM. Also, the TGI in assay [1] worked out at 1.53 µM; in assay [2], 1.75 µM; in assay [3], 2.43 µM; in assay [4], 3.26 µM; in assay [5], 1.83 µM; in assay [6], 2.56 µM. In addition, the TGI is 1.77 µM in [7], 5.36 µM in [8], 1.53 µM in assay [9] and 2.04 µM in assay [10].
For the compound `C=C1CC/C=C(\C)C(=O)C[C@@H]2[C@@H]1CC2(C)C`, the TGI in [1] was > 30 µM; in assay [2], 12.7 µM; in assay [3], 5.94 µM; in assay [4], 12 µM; in assay [5], 2.96 µM; in assay [6], > 100 µM. Further, the TGI in assay [7] was 6.34 µM; in assay [8], 10.5 µM; in [9], 26.3 µM; in [10], 11.5 µM.
Regarding `O=C(/C=C/c1cc([N+](=O)[O-])ccc1Cl)c1ccccc1`, the GI50 is 12.8 µM in assay [1]; 3.3 µM in assay [2]; 2.76 µM in [3]; 14.1 µM in assay [4]; 15 µM in [5]; 3.68 µM in assay [6]. In addition, the GI50 in assay [7] is 14.3 µM; in assay [8], 15.4 µM; in assay [9], 21.7 µM; in assay [10], 2.05 µM. Moreover, the TGI in assay [1] amounted to 26.9 µM; in [2], 9.27 µM; in assay [3] it was 17.4 µM; in assay [4], 33.7 µM; in assay [5] it was 36.8 µM; in assay [6], 14.6 µM. Besides, the TGI was 29 µM in assay [7], 29.3 µM in assay [8], 99.6 µM in assay [9] and 3.9 µM in assay [10].
Take `COc1cc2c(cc1Nc1nc(Nc3ccsc3C(N)=O)c3cc[nH]c3n1)N(C(=O)CN(C)C)CCC2(C)C`: the GI50 in [1] is 1.18 µM; in assay [2] it was 0.485 µM; in assay [3], < 0.0025 µM; in assay [4], 0.889 µM; in assay [5], 0.764 µM; in assay [6] it was 1.09 µM. Further, the GI50 in assay [7] was 3.06 µM; in [8], 0.797 µM; in assay [9], 2.7 µM; in [10], 0.357 µM. The TGI in [1] stood at 4.97 µM; in assay [2], 4.47 µM; in assay [3], 2.97 µM; in assay [4], 5.3 µM; in assay [5], 3.76 µM; in [6], 5.21 µM. Moreover, the TGI in assay [7] was determined as 6.41 µM; in [8], 3.89 µM; in assay [9], 5.9 µM; in assay [10], 4.1 µM.
As for `O=C(NP(=O)(N1CC1)N1CC1)c1cc(I)ccc1I`, the TGI was > 100 µM in assay [1]; > 100 µM in assay [2]; > 100 µM in [3]; > 79 µM in [4]; > 92.9 µM in assay [5]; > 100 µM in [6]. Moreover, the TGI in assay [7] is > 100 µM; in assay [8], > 100 µM; in [9], 79.1 µM; in assay [10], > 100 µM.
In the case of `CCC1CCc2nc3sc(C(=O)Nc4cccc(F)c4)c(N)c3cc2C1` (stereo not given), the GI50 in assay [1] was 0.602 µM; in assay [2], > 100 µM; in assay [3], 0.313 µM; in [4] it was > 100 µM; in assay [5] it was > 100 µM; in assay [6], > 100 µM. Moreover, the GI50 was > 100 µM in assay [7], 0.386 µM in [8], 9.19 µM in assay [9] and 0.707 µM in assay [10]. Also, the TGI in [1], in assay [2], in assay [3], in assay [4], in [5] and in assay [6] was > 100 µM in each case. The TGI in [7], in assay [8], in assay [9] and in assay [10] was > 100 µM throughout.
Regarding `O=[N+]([O-])c1c(Br)sc(Br)c1[N+](=O)[O-]`, the GI50 in assay [1] was 13.2 µM; in [2], 12.3 µM; in assay [3], 2.2 µM; in assay [4] it was 6.67 µM; in assay [5], 0.613 µM; in assay [6], 1.91 µM. Also, the GI50 was 2.01 µM in assay [7], 4.88 µM in assay [8], 1.88 µM in assay [9] and 1.6 µM in [10]. In addition, the TGI in assay [1] worked out at 26 µM; in assay [2], 26.2 µM; in assay [3] it was 7.65 µM; in assay [4], 28.1 µM; in [5], 1.95 µM; in [6] it was 5.54 µM. In addition, the TGI is 4.54 µM in [7], 17.2 µM in assay [8], 4.99 µM in assay [9] and 3.27 µM in [10].
`Nc1nc(-c2ccccc2)nc(N)c1N=O`: the GI50 in assay [1] is 15.6 µM; in assay [2], 14.1 µM; in assay [3] it was 5.85 µM; in assay [4] it was 8.02 µM; in assay [5], 2.27 µM; in assay [6] it was 17.9 µM. Moreover, the GI50 in [7] was 11.9 µM; in assay [8] it was 8.21 µM; in assay [9], 5.21 µM; in assay [10], 2 µM. Besides, the TGI in [1] amounted to 30.6 µM; in assay [2] it was 27.6 µM; in [3], 27.1 µM; in assay [4], 27.9 µM; in [5] it was 7.27 µM; in assay [6], 78.7 µM. Moreover, the TGI in [7] was determined as 30.6 µM; in assay [8], 20.8 µM; in assay [9] it was 19.1 µM; in [10], 5.77 µM.

(Values after PubChem BioAssay (NCI).)
